Assay results: article PMC8983459 (Molecular cancer therapeutics, 2022)

Experiments:
[1] = tested on: 22Rv1 tumors; conditions: cited from earlier work
[2] = tested on: AR nuclear localization; conditions: cited from earlier work
[3] = tested on: AR; assay: Western blot with nucleocytoplasmic fractionation, AR level; assay type: cell-based, human; conditions: 10 nM, 20 h, C4-2, LN95, and 22Rv1
[4] = tested on: PSA expression in LN95 cells (AR activity); assay: PSA ELISA of conditioned medium, LN95 cells; assay type: cell-based, human
[5] = tested on: PSA expression in C4-2 cells (AR activity); assay: PSA ELISA of conditioned medium, C4-2 cells; assay type: cell-based, human; conditions: C4-2, 48 h
[6] = tested on: PSA expression in 22Rv1 cells (AR activity); assay: PSA ELISA of conditioned medium, 22Rv1 cells; assay type: cell-based, human
[7] = tested on: PC-3 cells; assay: Cell proliferation assay, PC-3; assay type: cell-based, human; conditions: PC-3, 10 μM, repeat experiment (Supplemental Fig. 2)
[8] = tested on: DU145 cells; assay: Cell proliferation assay, DU145; assay type: cell-based, human; conditions: DU145, 10 μM, repeat experiment (Supplemental Fig. 2)
[9] = tested on: 22Rv1 xenograft tumor; assay: 22Rv1 xenograft tumor study in castrated mice; conditions: 10 mg/kg i.p. every day; (+)-JJ-74-138 compared to enzalutamide p < 0.05
[10] = LN95, 48 h, DHT 0-1000 nM with 10 μM compound
[11] = DHT 0-1000 nM with 10 μM (+)-JJ-74-138 or 1 or 10 μM enzalutamide
[12] = 22Rv1, 48 h, DHT 0-1000 nM with 10 μM compound

For `CC(C)(c1ccc(OCC(O)CO)cc1)c1ccc(OCC(O)CCl)cc1` (stereo not drawn) [EPI-001], which “sensitivity of 22Rv1 tumors” value [1] is on record?
The value was “resistant”.

For `O=C(CSCc1cnoc1)N1CCN(c2ccccc2)CC1` [IMTPPE, 2-[(isoxazol-4-ylmethyl)thio]-1-(4-phenylpiperazin-1-yl)ethanone], which “androgen-independent AR nuclear localization” value [2] is on record?
Its value is “inhibited androgen-independent AR nuclear localization”.

For `C[C@]1(O)CC[C@H]2[C@@H]3CCC4=CC(=O)CCC4=C3C=C[C@@]21C` [R1881], which “amount of total AR and nuclear AR level” value [3] is on record?
The value was “increased the amount of total AR, particularly the nuclear AR level”.

Which results are given for `CNC(=O)c1ccc(N2C(=S)N(c3ccc(C#N)c(C(F)(F)F)c3)C(=O)C2(C)C)cc1F` [enzalutamide]?
inhibition at 10 µM ([4]; Homo sapiens, 48 h, read-out: inhibition of PSA levels): ~20%; DHT-stimulated PSA expression ([4]; LN95, 10 μM, with DHT (Fig. 3A)): effectively inhibit DHT-stimulated PSA expression; increase of EC50 of DHT induction of PSA [4, 10]: ~ 10 fold; maximal PSA induction by high DHT dosages [4, 10]: alleviated by high doses of DHT; increase of EC50 of DHT induction of PSA [5, 11]: ~ 10 fold; maximal PSA induction by high DHT dosages [5, 11]: alleviated by high doses of DHT; inhibition at 10 µM ([5]; Homo sapiens, read-out: inhibition of PSA levels): ~70%; DHT-stimulated PSA expression ([6]; 22Rv1, 10 μM, with DHT (Fig. 3A)): effectively inhibit DHT-stimulated PSA expression; increase of EC50 of DHT induction of PSA [6, 12]: ~ 10 fold; maximal PSA induction by high DHT dosages [6, 12]: alleviated by high doses of DHT; cell growth [7]: minimal inhibitory effect; cell growth [8]: minimal inhibitory effect; survival (Kaplan-Meier, ad hoc analysis) [9]: did not differ from the vehicle control

Which PSA expression ([4]; LN95 cells (Supplemental Fig. 3)) does the source give for `CC/C(=C(\c1ccccc1)c1ccc(OCCN(C)C)cc1)c1ccccc1` [tamoxifen] here?
Its PSA expression is “did not affect PSA expression”.
